{"source": "paper PMC9983021", "about": "“Novel GluN2B-Selective NMDA Receptor Negative Allosteric Modulator Possesses Intrinsic Analgesic Properties and Enhances Analgesia of Morphine in a Rodent Tail Flick Pain Model” (ACS Chemical Neuroscience, 2023)", "key": {"Alpha2B (α2B)": {"biological_target": "T1, Alpha2B (α2B) (Homo sapiens, UniProt P18089)", "T1 sequence (P18089 1-450)": "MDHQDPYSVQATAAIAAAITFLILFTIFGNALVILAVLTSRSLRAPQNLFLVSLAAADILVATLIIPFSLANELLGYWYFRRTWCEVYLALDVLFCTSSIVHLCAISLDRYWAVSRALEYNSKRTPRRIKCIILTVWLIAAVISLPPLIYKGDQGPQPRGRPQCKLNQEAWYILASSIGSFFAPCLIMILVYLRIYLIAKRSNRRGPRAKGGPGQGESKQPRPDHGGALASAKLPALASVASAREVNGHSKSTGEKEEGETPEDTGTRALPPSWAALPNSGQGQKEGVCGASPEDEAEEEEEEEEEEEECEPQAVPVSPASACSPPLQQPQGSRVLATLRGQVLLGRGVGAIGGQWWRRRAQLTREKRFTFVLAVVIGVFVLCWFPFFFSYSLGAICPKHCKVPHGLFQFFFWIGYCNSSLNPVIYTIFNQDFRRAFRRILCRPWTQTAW", "assay": "Radioligand binding assay (NIMH PDSP)", "procedure": "Compound EU93-108 was also tested for inhibition of binding of probes to a range of GPCRs and other targets (Table 4 and Supporting Table S4). […] EU93-108 produced significant displacement of binding probes for the 5-HT2 receptors and α-1-adrenergic receptors, as well as D3, H1, and σ1 receptors. Concentration–response binding competition curves for these targets were used to determine Ki values (Table 4). Given that the brain concentration of EU93-108 achieved 30 min post i.p. injection is 18 μM (Figure 6), the doses that yield our desired antinociceptive effects may engage some of the receptors listed in Table 4.\nConventional competition and saturation radioligand binding assays were used to determine the affinities of reference standards and EU93-108. Experiments were carried out by the NIMH Psychoactive Drug Screening Program (PDSP) and were performed as previously described.[123]\nThe detailed experimental protocols for the radioligand assays are available on the NIMH PDSP website at https://pdsp.unc.edu/pdspweb/content/UNC-CH%20Protocol%20Book.pdf.\nReceptor Mean % Receptor Mean % Receptor Mean %\nInhibition Inhibition Inhibition\nSupplemental Table S4. Off-Target Actions of EU93-108: Primary GPCR Screen. Cloned human molecular targets were individually expressed and submitted to molecular target-based screening with initial screens performed at a final concentration of 10 µM in quadruplicate. Complete protocols for the assays have been previously published (Besnard J et al. 2012). Where inhibition greater than 50% was measured, secondary screens were performed wherein Ki values were calculated (see Table 4)."}, "Sigma1 (σ1) [1]": {"biological_target": "Sigma1 (σ1) (Homo sapiens, UniProt Q99720)", "sequence (Q99720 whole entry)": "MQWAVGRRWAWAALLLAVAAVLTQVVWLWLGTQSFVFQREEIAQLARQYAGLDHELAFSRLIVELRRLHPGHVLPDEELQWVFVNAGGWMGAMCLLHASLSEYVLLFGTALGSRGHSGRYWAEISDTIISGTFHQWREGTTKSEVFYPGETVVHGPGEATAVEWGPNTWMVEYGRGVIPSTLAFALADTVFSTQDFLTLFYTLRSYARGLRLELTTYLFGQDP", "assay": "Radioligand binding assay (NIMH PDSP)"}, "Sigma1 (σ1) [2]": {"biological_target": "Sigma1 (σ1)", "assay": "Radioligand binding assay (NIMH PDSP)", "design": "species or system human", "conditions": "ratio of Ki to the IC50 for EU93-108 (555 nM) at GluN2B"}, "C57BL/6J mice [3]": {"tested_on": "C57BL/6J mice", "assay": "Hot water tail immersion test, compound alone (intrinsic antinociception)", "format": "in vivo", "conditions": "for effect on tail flick latency vs vehicle: n = 8 per group", "from_the_text": "After evaluating EU93-108 in vitro, we next evaluated a panel of GluN2B inhibitors for their ability to produce an antinociceptive effect using a classical model of pain perception, determination of tail flick latency for mice when their tails are placed in hot water (Figures 4 and 5). The hot water tail immersion test is a well-validated method of assessing reflexive (i.e., spinal) pain-like response in rodents.[80]−[83] We interpret a drug-induced increase in tail flick latency as analgesia.\nThe inhibitors were injected i.p. 30 min prior to a hot water tail immersion test. Four treatment groups and one control group were used (n = 8 per group) where the control group received vehicle (10% DMSO, 20% PEG, 2% DMA in water) and groups 1 through 4 were randomly assigned one dose of the appropriate compound.\n(§1) All animal studies performed at Emory have been approved by the Institutional Animal Care and Use Committee at Emory University. Male and female C57BL/6J mice weighing between 20 and 30 g were housed five per cage and given ad libitum access to food and water. The mice were 8–10 weeks of age at the time of experimentation. Animal holding rooms operated on a 12 h dark/light cycle with the dark cycle from 7:00 pm to 7:00 am. Mice were allowed to acclimate in cages for one week after arrival. The mice were handled regularly and habituated to scruffing and cloth restraint for 3–5 days prior to experimentation.\nMouse weights were recorded on the day of each experiment. Mice were given the appropriate treatment(s) 30 min prior to testing. All injection volumes were 10 mL/kg (e.g., 350 μL for a 35 g mouse). For the tail immersion experiments, each mouse was restrained with a Wypall cloth, leaving the tail exposed. The distal two-thirds of the tail was lowered into a sous vide water bath set to 48 °C, and a stopwatch with a resolution of 0.01 s was used to record the time elapsed between immersion and tail flick. Three recordings were taken for each mouse, and each data point is expressed as the mean of the three recordings. A cut-off time of 25 s was implemented to prevent tissue damage or scarring. For each experiment, the identities of the doses were coded by an independent researcher to ensure blinding. The identities were not decoded until the data were analyzed.\n(§2) Prism 9.3.1 software (GraphPad, San Diego, CA) was used for all data analysis and visualization. Data for intrinsic antinociception was analyzed using one-way ANOVA and Dunnett’s post hoc test for multiple comparisons where each group was compared to vehicle. Data for acute morphine potentiation experiments were analyzed using one-way ANOVA and Tukey’s post hoc test for multiple comparisons was also used, where each group mean was compared to the mean of every other group. Data for tolerance experiments were analyzed using repeated measures two-way ANOVA and Bonferroni post hoc analysis. Data are presented as mean ± SEM and p < 0.05 constitutes significance."}, "C57BL/6J mice [4]": {"tested_on": "C57BL/6J mice", "assay": "Hot water tail immersion test, acute co-administration with 5 mg/kg morphine", "format": "in vivo", "conditions": "for lowest dose that significantly increased latency: plus 5 mg/kg morphine s.c.", "procedure": "We were next interested in evaluating the effects of EU93-108 when given acutely in combination with morphine. 5 mg/kg morphine was chosen because this dose elicited an approximately half-maximal response in our initial morphine dose–response curve (Supporting Figure S3). This half-maximal response would allow us to see any changes in tail flick latency that EU93-108 might elicit.\nFour treatment groups and one control group were used (n = 8 per group). The control group received vehicle (10% DMSO, 20% PEG, 2% DMA in water) i.p. plus 5 mg/kg morphine s.c. formulated in normal saline, and groups 1–4 were randomly assigned one dose of EU93-108 i.p. plus 5 mg/kg morphine s.c. The doses used were the same as in the intrinsic analgesia experiments.\nas §1, with “The mice were handled regularly and habituated to scruffing and cloth restraint for 3–5 days prior to experimentation.” left out\nMouse weights were recorded on the day of each experiment. […] Three recordings were taken for each mouse, and each data point is expressed as the mean of the three recordings. […] The identities were not decoded until the data were analyzed.\nas §2, with “Data are presented as mean ± SEM and p < 0.05 constitutes significance.” left out"}, "GluN1/GluN2C": {"biological_target": "GluN1/GluN2C (Rattus norvegicus, UniProt P35439+Q00961)", "sequence (Q00961 20-1237, other chains not shown)": "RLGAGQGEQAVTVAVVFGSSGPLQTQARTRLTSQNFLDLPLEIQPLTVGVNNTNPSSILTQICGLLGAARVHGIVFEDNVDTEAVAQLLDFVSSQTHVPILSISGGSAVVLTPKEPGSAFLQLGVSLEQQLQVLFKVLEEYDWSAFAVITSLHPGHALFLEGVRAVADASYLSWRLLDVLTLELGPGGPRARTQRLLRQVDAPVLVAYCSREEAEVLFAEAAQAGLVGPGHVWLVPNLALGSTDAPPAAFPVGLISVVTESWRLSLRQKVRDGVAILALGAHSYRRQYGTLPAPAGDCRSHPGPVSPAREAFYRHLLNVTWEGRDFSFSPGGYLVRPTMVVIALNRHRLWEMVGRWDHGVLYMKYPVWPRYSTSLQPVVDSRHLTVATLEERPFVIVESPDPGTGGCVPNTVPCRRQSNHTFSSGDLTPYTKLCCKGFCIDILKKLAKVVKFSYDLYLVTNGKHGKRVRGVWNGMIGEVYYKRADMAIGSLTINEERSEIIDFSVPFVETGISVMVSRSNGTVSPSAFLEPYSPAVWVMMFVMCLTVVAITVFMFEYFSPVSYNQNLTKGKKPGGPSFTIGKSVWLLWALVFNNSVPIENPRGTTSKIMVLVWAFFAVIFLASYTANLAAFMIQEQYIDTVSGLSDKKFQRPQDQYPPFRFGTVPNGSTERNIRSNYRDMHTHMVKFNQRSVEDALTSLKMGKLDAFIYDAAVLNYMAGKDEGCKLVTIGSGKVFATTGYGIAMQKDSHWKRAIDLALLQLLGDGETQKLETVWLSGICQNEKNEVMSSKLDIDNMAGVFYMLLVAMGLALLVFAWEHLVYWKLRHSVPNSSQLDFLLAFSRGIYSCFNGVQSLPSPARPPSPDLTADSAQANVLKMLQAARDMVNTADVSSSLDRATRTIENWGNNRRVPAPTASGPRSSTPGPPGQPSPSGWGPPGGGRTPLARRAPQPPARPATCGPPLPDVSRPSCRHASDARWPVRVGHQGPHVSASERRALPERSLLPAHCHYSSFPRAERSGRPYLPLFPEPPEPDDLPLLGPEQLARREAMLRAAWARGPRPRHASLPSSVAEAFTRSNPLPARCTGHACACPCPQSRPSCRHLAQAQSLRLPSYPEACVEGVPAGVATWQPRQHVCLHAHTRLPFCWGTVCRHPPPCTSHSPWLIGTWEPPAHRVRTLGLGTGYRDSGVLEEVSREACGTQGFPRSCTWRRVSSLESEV"}, "[5]": {"conditions": "primary screen, 10 µM, quadruplicate"}, "[6]": {"conditions": "secondary screen, binding competition curve"}, "[7]": {"conditions": "male mice, i.p. 30 min prior to test"}}}
{"smiles": "CS(=O)(=O)Nc1ccc(OC[C@@H](O)CN2CCN(c3ccc(F)c(F)c3)CC2)cc1", "note": "[EU93-108, (S)-N-(4-(3-(4-(3,4-Difluorophenyl)piperazin-1-yl)-2-hydroxypropoxy)phenyl)methanesulfonamide]", "values": [{"measurement": "inhibition at 10 µM", "setting": "Alpha2B (α2B); [5]", "value": 68, "unit": "%"}, {"measurement": "Ki/IC50 of EU93-108", "setting": "Alpha2B (α2B); ratio of Ki to the IC50 for EU93-108 (555 nM) at GluN2B", "value": 1.31}, {"measurement": "Ki", "setting": "Alpha2B (α2B); [6]", "value": 728, "unit": "nM"}, {"measurement": "inhibition at 10 µM", "setting": "Sigma1 (σ1) [1]; [5]", "value": 69.2, "unit": "%"}, {"measurement": "Ki", "setting": "Sigma1 (σ1) [1]; [6]", "value": 505, "unit": "nM"}, {"measurement": "Ki/IC50 of EU93-108", "setting": "Sigma1 (σ1) [2]", "value": 0.91}, {"measurement": "ED50", "setting": "C57BL/6J mice [3]; Mus musculus, ip, male mice, i.p., fitted dose–response curve, estimated, read-out: ED50 (tail flick latency), EU93-108 alone", "value": 9.7, "unit": "mg/kg"}, {"measurement": "dose at which significant increase in latency was achieved", "setting": "C57BL/6J mice [3]; female mice, i.p.", "value": 60, "unit": "mg/kg"}, {"measurement": "effect on tail flick latency vs vehicle", "setting": "C57BL/6J mice [3]; female mice, i.p. 30 min prior to test", "value": "increased latency, but only at 60 mg/kg"}, {"measurement": "mean latency increase", "setting": "C57BL/6J mice [3]; [7]", "value": 16, "unit": "s"}, {"measurement": "effect on tail flick latency vs vehicle", "setting": "C57BL/6J mice [3]; [7]", "value": "significant increases in latency at the two highest doses tested (30 and 60 mg/kg)"}, {"measurement": "dose at which significant latency increases were achieved", "setting": "C57BL/6J mice [3]; male mice, i.p., lowest significant dose", "value": 30, "unit": "mg/kg"}, {"measurement": "lowest dose that significantly increased latency", "setting": "C57BL/6J mice [4]; female mice", "value": 20, "unit": "mg/kg"}, {"measurement": "potency when combined with morphine versus EU93-108 alone", "setting": "C57BL/6J mice [4]; male mice", "value": "approximately 3 fold"}, {"measurement": "lowest dose that significantly increased latency", "setting": "C57BL/6J mice [4]; male mice", "value": 10, "unit": "mg/kg"}, {"measurement": "% Control 10 µM EU93-108", "setting": "GluN1/GluN2C; agonist 100 µM glutamate, 30 µM glycine, mean ± SEM", "value": "97 ± 2.8", "unit": "%"}, {"measurement": "inhibition at 10 µM", "setting": "GluN1/GluN2C; read-out: Mean % Inhibition by 10 μM EU93-108", "value": "5.3 ± 2.2", "unit": "%"}]}
